Reference: patent US11136325B2, “Pyrrolopyrimidine and pyrrolopyridine derivatives” (GALAPAGOS NV, priority 2017, dated 2021)

System: ASK1/2 (phospho-MKK3 in H2O2-stimulated PBMCs)
Assay: ASK1/2 cellular assay: phospho-MKK3 in H2O2-stimulated PBMCs, western blot
Format: cell-based
Settings: PBMC, 0.5 h, 3 mM H2O2, 30 min, read-out: Inhibition (pIC50) (converted)
Experimental: ASK1/2 activity in vitro was assayed by determining the quantity of phospho-MKK3 protein in H2O2-stimulated PBMCs, using western blot method.
• Lymphoprep (Axis-Shield, Cat. No. 1114545) • Ammonium chloride lysate buffer pH 7.4 (10× concentrated): • NH4Cl—final conc. 1.5 M (Kemika, Cat. No. 0137407) • NaHCO3— final conc. 100 mM (Kemika, Cat. No. 1411007) • Na2EDTA—final conc. 10 mM (Sigma Aldrich; Cat. No. E-4884) • RPMI 1640 (Lonza Cat. No. BE12-115F/U1) • FBS (Sigma Cat. No. F7524, heat inactivated 30′/56° C.) • Dimethyl sulfoxide (DMSO) (Sigma, Cat. No. D2650) • Cell lysis buffer (pH 7.4): PBS+1% Triton X-100 (Sigma Aldrich; Cat. No. X100)—10 ml • Phospho-Stop—1 tablet (Sigma, Cat. No. 4693124001) • Protease Inhibitor—1 tablet (Sigma, Cat. No. 4906837001) • Hydrogen peroxide solution 3% w/w (Sigma Aldrich, Cat. No. H-6520) • PBS (Sigma Aldrich, Cat. No. P4417-100TAB) • Microplate, 96 well, pp, v-bottom, clear (Greiner bio-one; Cat. No. 651201) • Tissue culture plate, 6 well, flat bottom with low evaporation lid (Falcon, Cat. No. 353224) • 50 mL falcon tube (TPP, Cat. No. 91050) • Pierce BCA Protein Assay Kit (Thermo Scientific, Cat. No. 23225) • Immulon® Microtiter™ 96-Well Plate 1B (Thermo Scientific, Cat. No. 3355) • Wes 12-230 kDa Master Kit (Protein Simple, Cat. No. PS-MK14) • MKK3 (D4C3) Rabbit mAb (Cell Signaling, Cat. No. 8535) • Phospho-MKK3 (Ser189)/MKK6 (Ser207) (D8E9) Rabbit mAb (Cell Signaling, Cat. No. 12280)
The assay was configured to run using the following conditions: Tested compounds concentration range: 1-0.0014 μM (7 three-fold serial dilutions); H2O2 concentration: 3 mM
To isolate the PBMCs from buffy coat, the buffy coat was diluted 1:1 in PBS, then the dilute buffy-coat (25 mL) was carefully pipetted on top of 20 mL of Lymphoprep in a falcon tube. The tubes were then spun for 35 min at 400×g. The upper plasma layer is then carefully removed leaving the layer containing the MNCs. The layer containing the MNCs is then transferred to a new tube, PBS is added up to a total volume of 50 mL and the tube is then spun for 10 minutes (200×g, 25° C.). The resulting pellet is then resuspended in 2 mL PBS, the washing step was repeated. The final pellets were resuspended in ammonium chloride lysate buffer up to 50 mL, mixed gently and centrifuged for 10 minutes (200×g, 25° C.), resuspended in 2-3 mL of cell medium and diluted up to 50 mL in cell medium. The cell density of a 1/20 dilution in cell medium was determined using an automated cell counter.
10×10^6 PBMCs were seeded per well in 1 mL of RPMI 1640 cell medium supplemented with 10% FBS in 6-well plates. Seven sets of three-fold serial dilutions of compounds in DMSO starting from 1 mM in 96-well v-bottom plate were prepared. The DMSO compound solutions were diluted 100× in the cell medium. 200 μL of 100× diluted compound solution were added per well, control wells contained 200 μL of 1% DMSO prepared in cell medium. 7.5 mM H2O2 in cell medium was prepared and 800 μL was added to each well, except the negative control well to which 800 μL of cell medium was added. The cells were incubated for 30 min at 37° C., 5% CO2, 95% humidity. The cells were transferred to 2 mL Eppendorf tubes and centrifuged for 10 minutes at 300×g at 4° C., they were then washed with 1 mL PBS, the cell pellet was resuspended in 100 μL of lysis buffer and incubated on ice for 30 minutes. After which time the cell lysates were centrifuged for 5 minutes at 10000×g at 4° C. and the supernatants were then stored at −20° C.
Samples were diluted 5× in cell lysis buffer and total protein concentration was determined in 96-well Immulon 1B plate using BCA Protein Assay Kit following manufacturer's instructions.
Western blot assay was performed using Protein Simple Wes Master Kit and device, following manufacturer's instructions. 0.5 mg/mL of total proteins was loaded per sample; phospho-MKK3 and MKK3 antibodies were diluted 300×. […]

Question: How did the IC50 turn out when Cc1c[nH]c2ncnc(N3CCC(NC(=O)c4cc(N)ncc4F)CC3)c12 [Compound 1, 2-amino-5-fluoro-N-[1-(5-methyl-7H-pyrrolo[2,3-d]pyrimidin-4-yl)-4-piperidyl]pyridine-4-carboxamide] was run?
Answer: The IC50 was 8.91 nM.

Question: Which IC50 does the source give for Cc1cnc(N)cc1C(=O)NC1CCN(c2ncnc3[nH]cc(C)c23)CC1 [Compound 2, 2-amino-5-methyl-N-[1-(5-methyl-7H-pyrrolo[2,3-d]pyrimidin-4-yl)-4-piperidyl]pyridine-4-carboxamide] here?
Answer: The IC50 was 3.16 nM.

Question: Which IC50 does the source give for Cc1c[nH]c2ncnc(N3CCC(NC(=O)c4cc(N)ncc4Cl)CC3)c12 [Compound 3, 2-amino-5-chloro-N-[1-(5-methyl-7H-pyrrolo[2,3-d]pyrimidin-4-yl)-4-piperidyl]-pyridine-4-carboxamide] here?
Answer: The IC50 was 39.8 nM.

Question: Which IC50 does the source give for Nc1cc(C(=O)NC2CCN(c3ncnc4[nH]cc(Cl)c34)CC2)ccn1 [Compound 4, 2-amino-N-[1-(5-chloro-7H-pyrrolo[2,3-d]pyrimidin-4-yl)-4-piperidyl]pyridine-4-carboxamide] here?
Answer: Its IC50 is 7.94 nM.

Question: How did the IC50 turn out when Nc1cc(C(=O)NC2CCN(c3ncnc4[nH]cc(Cl)c34)CC2)c(F)cn1 [Compound 5, 2-amino-N-[1-(5-chloro-7H-pyrrolo[2,3-d]pyrimidin-4-yl)-4-piperidyl]-5-fluoro-pyridine-4-carboxamide] was run?
Answer: Its IC50 is 6.31 nM.

Question: Cc1c[nH]c2ncc(C#N)c(N3CCC(NC(=O)c4cc(N)ncc4F)CC3)c12 [Compound 6, 2-amino-N-[1-(5-cyano-3-methyl-1H-pyrrolo[2,3-b]pyridin-4-yl)-4-piperidyl]-5-fluoro-pyridine-4-carboxamide] was tested. Which IC50 did it give?
Answer: The IC50 was 12.6 nM.

Question: With Nc1cc(C(=O)NC2CCN(c3ccnc4[nH]cc(Cl)c34)CC2)c(F)cn1 [Compound 7, 2-amino-N-[1-(3-chloro-1H-pyrrolo[2,3-b]pyridin-4-yl)-4-piperidyl]-5-fluoro-pyridine-4-carboxamide] as the compound, how does the IC50 read?
Answer: Its IC50 is 12.6 nM.
